From US12091411B2, “IRAK degraders and uses thereof” (Kymera Therapeutics, Inc., priority 2022, dated 2024) come the findings set out here.

Where two headings read alike, the source gives them in different places.

The DC50 is the concentration giving 50% degradation.

This assay has as its target T1, IRAK4 (Homo sapiens, UniProt Q9NWZ3).
T1 construct: Degradation of IRAK4 in OCI-LY10 was quantitatively measured using Meso Scale Discovery technology; endogenous in cells; host or cells: OCI-LY10
T1 sequence (Q9NWZ3 1-460): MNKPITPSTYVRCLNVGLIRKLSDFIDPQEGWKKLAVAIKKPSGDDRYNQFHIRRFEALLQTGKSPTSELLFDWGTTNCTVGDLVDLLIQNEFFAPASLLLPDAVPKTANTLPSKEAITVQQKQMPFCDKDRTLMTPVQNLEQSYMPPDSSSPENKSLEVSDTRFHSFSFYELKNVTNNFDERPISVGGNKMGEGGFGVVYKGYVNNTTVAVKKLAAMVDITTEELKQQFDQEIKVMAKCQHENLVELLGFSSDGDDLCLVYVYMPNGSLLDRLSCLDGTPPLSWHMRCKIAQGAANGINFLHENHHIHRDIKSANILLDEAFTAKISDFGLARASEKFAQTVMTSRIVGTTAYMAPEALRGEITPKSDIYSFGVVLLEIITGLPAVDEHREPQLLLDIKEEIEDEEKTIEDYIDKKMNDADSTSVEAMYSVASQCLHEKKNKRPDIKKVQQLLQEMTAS
Briefly: IRAK4 MSD Degradation in OCI-LY10. The format is cell-based. The following applies: OCI-LY10 cells, MSD. In short, it runs like this:
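DC50, from a three-parameter logistic fit and reported as letter bins A (<0.01 μM), B, C, D (>0.2 μM or not tested), reflects IRAK4 loss measured by MSD electrochemiluminescence in OCI-LY10 lysates. Treatment: 8 doses, 1:3 steps, top 1 to 10 μM, 4 to 24 h, 37 °C.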

Where [1] appears, read: 4 hrs incubation, read-out: IRAK4 degradation in OCI-LY10 at 4 hrs: DC50.
[2] abbreviates: 24 hrs incubation, read-out: IRAK4 degradation in OCI-LY10 at 24 hrs: DC50.

On to `Cn1c(=O)n(C2CCC(=O)NC2=O)c2cccc(CC[C@H]3CN(C[C@H]4CC[C@H](n5cc(NC(=O)c6cnn7ccc(N8C[C@H]9C[C@@H]8CO9)nc67)c(C(F)F)n5)CC4)CCO3)c21` (some centres unmarked) [I-385], for which the DC50 under setting [1] is under 10 nM and the 50% degradation concentration (DC50) under setting [2] is over 200 nM.
On to `Cn1c(=O)n(C2CCC(=O)NC2=O)c2cccc(CC[C@H]3CN(Cc4ccc(-n5cc(NC(=O)c6cnn7ccc(N8C[C@H]9C[C@@H]8CO9)nc67)c(C(F)F)n5)cc4)CCO3)c21` (some centres unmarked) [I-386], for which the DC50 was over 200 nM under setting [1] and over 200 nM under setting [2].
For the compound `Cn1c(=O)n(C2CCC(=O)NC2=O)c2cccc(CC[C@H]3CN(C[C@H]4CC[C@H](n5cc(NC(=O)c6cnn7cccnc67)c(C(F)F)n5)CC4)CCO3)c21` (some centres unmarked) [I-387], the 50% degradation concentration (DC50) reads like this: under setting [1], under 10 nM; under setting [2], over 200 nM.
The matching figures for `Cn1c(=O)n(C2CCC(=O)NC2=O)c2cccc(CC[C@H]3CN(Cc4ccc(-n5cc(NC(=O)c6cnn7cccnc67)c(C(F)F)n5)cc4)CCO3)c21` (some centres unmarked) [I-388]: over 200 nM and over 200 nM.
For the compound `Cn1c(=O)n(C2CCC(=O)NC2=O)c2cccc(C#CC[C@@H]3CN(C[C@H]4CC[C@H](n5cc(NC(=O)c6cnn7ccc(N8C[C@H]9C[C@@H]8CO9)nc67)c(C(F)F)n5)CC4)CCO3)c21` (some centres unmarked) [I-389], the DC50 is, setting by setting: under setting [1], 10 to 100 nM; under setting [2], over 200 nM.
Consider `Cn1c(=O)n(C2CCC(=O)NC2=O)c2cccc(C#CC[C@@H]3CN(Cc4ccc(-n5cc(NC(=O)c6cnn7ccc(N8C[C@H]9C[C@@H]8CO9)nc67)c(C(F)F)n5)cc4)CCO3)c21` (some centres unmarked) [I-390], for which the DC50 is, setting by setting: under setting [1], over 200 nM; under setting [2], over 200 nM.
Consider `Cn1c(=O)n(C2CCC(=O)NC2=O)c2cccc(C[C@@H]3CN(C[C@H]4CC[C@H](n5cc(NC(=O)c6cnn7cccnc67)c(C(F)F)n5)CC4)CCO3)c21` (some centres unmarked) [I-391], for which the DC50 by setting is: under setting [1], over 200 nM; under setting [2], over 200 nM.
For the compound `Cn1c(=O)n(C2CCC(=O)NC2=O)c2cccc(C[C@@H]3CN(Cc4ccc(-n5cc(NC(=O)c6cnn7cccnc67)c(C(F)F)n5)cc4)CCO3)c21` (some centres unmarked) [I-392], the DC50 under setting [1] is over 200 nM and the DC50 under setting [2] is over 200 nM.
For the compound `Cn1c(=O)n(C2CCC(=O)NC2=O)c2cccc(C[C@@H]3CN(C[C@H]4CC[C@H](n5cc(NC(=O)c6cnn7ccc(N8C[C@H]9C[C@@H]8CO9)nc67)c(C(F)F)n5)CC4)CCO3)c21` (some centres unmarked) [I-393], the 50% degradation concentration (DC50) under setting [1] was over 200 nM and the DC50 under setting [2] is over 200 nM.
As to `Cn1c(=O)n(C2CCC(=O)NC2=O)c2cccc(C[C@@H]3CN(Cc4ccc(-n5cc(NC(=O)c6cnn7ccc(N8C[C@H]9C[C@@H]8CO9)nc67)c(C(F)F)n5)cc4)CCO3)c21` (some centres unmarked) [I-394], the DC50 reads like this: under setting [1], over 200 nM; under setting [2], over 200 nM.
Consider `Cn1c(=O)n(C2CCC(=O)NC2=O)c2cccc(CC[C@@H]3CN(C[C@H]4CC[C@H](n5cc(NC(=O)c6cnn7ccc(N8C[C@H]9C[C@@H]8CO9)nc67)c(C(F)F)n5)CC4)CCO3)c21` (some centres unmarked) [I-395], for which the half-maximal degradation concentration (DC50) is, setting by setting: under setting [1], over 200 nM; under setting [2], over 200 nM.
With `Cn1c(=O)n(C2CCC(=O)NC2=O)c2cccc(CC[C@@H]3CN(Cc4ccc(-n5cc(NC(=O)c6cnn7ccc(N8C[C@H]9C[C@@H]8CO9)nc67)c(C(F)F)n5)cc4)CCO3)c21` (some centres unmarked) [I-396], the half-maximal degradation concentration (DC50) is over 200 nM under setting [1] and over 200 nM under setting [2].
For `Cn1c(=O)n(C2CCC(=O)NC2=O)c2cccc(CC[C@@H]3CN(C[C@H]4CC[C@H](n5cc(NC(=O)c6cnn7cccnc67)c(C(F)F)n5)CC4)CCO3)c21` (some centres unmarked) [I-397], the DC50 under setting [1] is over 200 nM and the 50% degradation concentration (DC50) under setting [2] is over 200 nM.
As to `Cn1c(=O)n(C2CCC(=O)NC2=O)c2cccc(CC[C@@H]3CN(Cc4ccc(-n5cc(NC(=O)c6cnn7cccnc67)c(C(F)F)n5)cc4)CCO3)c21` (some centres unmarked) [I-398], the DC50 was over 200 nM under setting [1] and over 200 nM under setting [2].
As for `Cn1c(=O)n(C2CCC(=O)NC2=O)c2cccc(N3CCC4(CC3)CN(Cc3ccc(-n5cc(NC(=O)c6cnn7cccnc67)c(C(F)F)n5)cc3)C4)c21` (centres unmarked) [I-399], the 50% degradation concentration (DC50) was under 10 nM under setting [1] and over 200 nM under setting [2].
For the compound `Cn1c(=O)n(C2CCC(=O)NC2=O)c2cccc(N3CC4(CCN(Cc5ccc(-n6cc(NC(=O)c7cnn8ccc(N9C[C@H]%10C[C@@H]9CO%10)nc78)c(C(F)F)n6)cc5)CC4)C3)c21` (some centres unmarked) [I-400], the DC50 is, setting by setting: under setting [1], 10 to 100 nM; under setting [2], over 200 nM.
For `Cn1c(=O)n(C2CCC(=O)NC2=O)c2cccc(OC3CC4(CCN(Cc5ccc(-n6cc(NC(=O)c7cnn8ccc(N9C[C@H]%10C[C@@H]9CO%10)nc78)c(C(F)F)n6)cc5)CC4)C3)c21` (some centres unmarked) [I-401], the DC50 by setting is: under setting [1], over 200 nM; under setting [2], over 200 nM.
Consider `Cn1c(=O)n(C2CCC(=O)NC2=O)c2cccc(CN3CC4(CCN(Cc5ccc(-n6cc(NC(=O)c7cnn8ccc(N9C[C@H]%10C[C@@H]9CO%10)nc78)c(C(F)F)n6)cc5)CC4)C3)c21` (some centres unmarked) [I-402], for which the DC50 runs as follows: under setting [1], over 200 nM; under setting [2], over 200 nM.
In the case of `Cn1c(=O)n(C2CCC(=O)NC2=O)c2cccc(N3CCN(C[C@H]4CC[C@H](n5cc(NC(=O)c6cnn7cccnc67)c(C(F)F)n5)CC4)CC3)c21` (some centres unmarked) [I-403], the half-maximal degradation concentration (DC50) reads like this: under setting [1], over 200 nM; under setting [2], over 200 nM.
Consider `Cn1c(=O)n(C2CCC(=O)NC2=O)c2cccc(N3CCC4C(C3)OCCN4C[C@H]3CC[C@H](n4cc(NC(=O)c5cnn6cccnc56)c(C(F)F)n4)CC3)c21` (some centres unmarked) [I-404], for which the 50% degradation concentration (DC50) is over 200 nM under setting [1] and over 200 nM under setting [2].
Take `C[C@H]1CN(c2ccn3ncc(C(=O)Nc4cn([C@H]5CC[C@H](CN6CCN(CC#Cc7cccc8c7n(C)c(=O)n8C7CCC(=O)NC7=O)CC6)CC5)nc4C(F)F)c3n2)CCO1` (some centres unmarked) [I-405]: the DC50 by setting is: under setting [1], over 200 nM; under setting [2], over 200 nM.
`C[C@@H]1CN(c2ccn3ncc(C(=O)Nc4cn([C@H]5CC[C@H](CN6CCN(CC#Cc7cccc8c7n(C)c(=O)n8C7CCC(=O)NC7=O)CC6)CC5)nc4C(F)F)c3n2)CCO1` (some centres unmarked) [I-406]: the 50% degradation concentration (DC50) was over 200 nM under setting [1] and under 10 nM under setting [2].
In the case of `Cn1c(=O)n(C2CCC(=O)NC2=O)c2cccc(C#CCN3CCN(C[C@H]4CC[C@H](n5cc(NC(=O)c6cnn7ccc(N8CCOC(C(F)F)C8)nc67)c(C(F)F)n5)CC4)CC3)c21` (some centres unmarked) [I-407], the half-maximal degradation concentration (DC50) was over 200 nM under setting [1] and over 200 nM under setting [2].
With `Cn1c(=O)n(C2CCC(=O)NC2=O)c2cccc(C#CCN3CCN(C[C@H]4CC[C@H](n5cc(NC(=O)c6cnn7ccc(N8CCN(C(F)(F)F)CC8)nc67)c(C(F)F)n5)CC4)CC3)c21` (some centres unmarked) [I-408], the DC50 under setting [1] was over 200 nM and the DC50 under setting [2] is over 200 nM.
On to `Cn1c(=O)n(C2CCC(=O)NC2=O)c2cccc(C#CCN3CCN(C[C@H]4CC[C@H](n5cc(NC(=O)c6cnn7ccc(N8CCN(CC(F)F)CC8)nc67)c(C(F)F)n5)CC4)CC3)c21` (some centres unmarked) [I-409], for which the 50% degradation concentration (DC50) reads like this: under setting [1], over 200 nM; under setting [2], over 200 nM.
For the compound `Cn1c(=O)n(C2CCC(=O)NC2=O)c2cccc(C#CCN3CCN(C[C@H]4CC[C@H](n5cc(NC(=O)c6cnn7ccc(N8CCN(CC(F)(F)F)CC8)nc67)c(C(F)F)n5)CC4)CC3)c21` (some centres unmarked) [I-410], the DC50 runs as follows: under setting [1], over 200 nM; under setting [2], over 200 nM.
Consider `CN1CCN(c2ccn3ncc(C(=O)Nc4cn([C@H]5CC[C@H](CN6CCN(CC#Cc7cccc8c7n(C)c(=O)n8C7CCC(=O)NC7=O)CC6)CC5)nc4C(F)F)c3n2)CC1C(F)F` (some centres unmarked) [I-411], for which the DC50 under setting [1] was over 200 nM and the DC50 under setting [2] is over 200 nM.
Turning to `CN1CCN(c2ccn3ncc(C(=O)Nc4cn([C@H]5CC[C@H](CN6CCN(CC#Cc7cccc8c7n(C)c(=O)n8C7CCC(=O)NC7=O)CC6)CC5)nc4C(F)F)c3n2)CC1C(F)(F)F` (some centres unmarked) [I-412], the DC50 by setting is: under setting [1], over 200 nM; under setting [2], over 200 nM.
Turning to `CN1CCC(c2ccn3ncc(C(=O)Nc4cn([C@H]5CC[C@H](CN6CCN(CC#Cc7cccc8c7n(C)c(=O)n8C7CCC(=O)NC7=O)CC6)CC5)nc4C(F)F)c3n2)C(F)(F)C1` (some centres unmarked) [I-413], the DC50 reads like this: under setting [1], over 200 nM; under setting [2], over 200 nM.
For the compound `Cn1c(=O)n(C2CCC(=O)NC2=O)c2cccc(C#CCN3CCN(C[C@H]4CC[C@H](n5cc(NC(=O)c6cnn7ccc(N8CC(F)(F)C8)nc67)c(C(F)F)n5)CC4)CC3)c21` (some centres unmarked) [I-414], the 50% degradation concentration (DC50) by setting is: under setting [1], 100 to 200 nM; under setting [2], over 200 nM.
For `Cn1c(=O)n(C2CCC(=O)NC2=O)c2cccc(-c3cc(CN4CCn5cc(-n6cc(NC(=O)c7cnn8cccnc78)c(C(F)F)n6)cc5C4)ncn3)c21` (centres unmarked) [I-415], the DC50 under setting [1] is over 200 nM and the DC50 under setting [2] is over 200 nM.
With `Cn1c(=O)n(C2CCC(=O)NC2=O)c2cccc(N3CCC(N4CCn5cc(-n6cc(NC(=O)c7cnn8cccnc78)c(C(F)F)n6)cc5C4)CC3)c21` (centres unmarked) [I-416], the 50% degradation concentration (DC50) is over 200 nM under setting [1] and over 200 nM under setting [2].
With `Cn1c(=O)n(C2CCC(=O)NC2=O)c2cccc(-c3ccc(N4CCc5cc(-n6cc(NC(=O)c7cnn8cccnc78)c(C(F)F)n6)ccc5C4)nc3)c21` (centres unmarked) [I-417], the DC50 by setting is: under setting [1], over 200 nM; under setting [2], over 200 nM.
Turning to `Cn1c(=O)n(C2CCC(=O)NC2=O)c2cccc(C#CCN3CCN(C[C@H]4CC[C@H](n5cc(NC(=O)c6cnn7ccc(N8CC[C@]9(CCOC9)C8)nc67)c(C(F)F)n5)CC4)CC3)c21` (some centres unmarked) [I-418], the DC50 under setting [1] was in the range of 10 to 100 nM and the half-maximal degradation concentration (DC50) under setting [2] was over 200 nM.
